The test system of assay [1] is Fasciola hepatica eggs (ABZ-susceptible isolate). As to the kind of experiment: Egg hatch test (EHT), ABZ-susceptible isolates. The class given is cell-based. The following applies: mean ± SEM; for % Ovicidal activity: ABZ-susceptible isolate. How it is done: Eggs were recovered from gallbladders of cattle naturally infected with F. hepatica at the municipal slaughterhouse of León (Spain). For this, the bile of the gallbladders was filtered through sieves of different diameter size pores (500, 150, and 20 µm) using pressurized tap water. Eggs retained on the 20 µm pore size sieve were collected and stored at 4 °C in darkness until required within a maximum period of 2 months.
The susceptibility of the isolates to ABZ was confirmed by the egg hatch test (EHT) using an ABZ discriminant dose (DD) of 0.5 µM [23]. The technique is described in more detail below.
The in vitro anthelmintic activity of a total of 70 BZDs was initially tested on F. hepatica eggs recovered from gallbladders of cattle naturally infected with ABZ-susceptible isolates. The first screening was performed using a fixed concentration of 50 µM. […] Therefore, only BZDs with ovicidal activities over 80% progressed to the next assays at 10 µM. […] At this last concentration, the ovicidal effect of ABZ, ABZSO, and OXF was also evaluated.
(§1) The in vitro EHT described in the current study was based on previous studies. Briefly, 100–120 eggs were incubated in 990 µL of water and 10 μL of each working solution at 25 °C in the dark for a period of 12 h. After incubation, eggs were gently washed with tap water three times to facilitate compound removal and kept in darkness at 25 °C for 14 days. After this period, eggs were exposed to light for 2 h to stimulate the hatching of eggs. Then, hatched and unhatched eggs were evaluated and counted using an optical microscope. The term “hatched eggs” includes both hatched and embryonated eggs. Negative control eggs were incubated with 10 μL of DMSO in 990 μL of water, reaching a maximum DMSO concentration of 1% (v/v), while ABZ at 0.5 µM was used as positive control. Each compound at a specific concentration was tested in triplicate in the same EHT and repeated at least two different days.
With the aim to characterize the susceptibility of isolates from naturally infected cattle, the drug used in the EHT was ABZ, tested at a discriminant dose of 0.5 μM. Drug susceptibility is assumed when the ovicidal activity is over 70%, resistance when is lower than 40%, and a suspicion of resistance when activity is between these values at 0.5 μM.
(§2) The efficacy of each compound and drug was calculated as its ovicidal activity following the formula below: Ovicidal activity%=100×%eggs hatched in negative control-%egg hatched after drug incubation/%egg hatched in control.

Assay [2] deals with Fasciola hepatica eggs (ABZ-resistant isolate). As to the kind of experiment: Egg hatch test (EHT), ABZ-resistant isolate. The class given is cell-based.
Text: F. hepatica eggs were recovered after washing the gallbladder of three naturally infected sheep belonging to a flock suspected to be resistant to ABZ. From these eggs, metacercariae were produced at the Centro de Investigaciones de Mabegondo (AGACAL, Xunta de Galicia, Spain) following a previous protocol. These metacercariae were used to infect eight sheep with a dose of 200 metacercariae. The infection was confirmed individually 3 months after the infection by coprological analysis using a sedimentation technique. At that point, sheep were randomly located in two groups of four animals: one treated with a therapeutic dose of ABZ (7.5 mg/kg) and the other one only with water, as control group. To assess the efficacy of ABZ in this isolate, all sheep were humanely euthanized by an intravenous administration of a lethal dose of sodium pentobarbital (Dolethal®, Vetoquinol, Spain) 2 weeks later for fluke recovery and counting. Afterwards, the in vivo efficacy of ABZ was calculated as the percentage of adult worm reduction compared with the untreated control. Additionally, the number of eggs per gram of feces (EPG) was estimated on the treatment day (mentioned as day 0) and 14 days later to determine drug efficacy by means of the fecal egg count reduction test (FECRT).
During the necropsy, gallbladders from sheep belonging to the untreated group were taken to collect the eggs and carry out the in vitro EHT, while flukes collected from livers were used to conduct the adult viability test (AVT).
Those BZDs with an activity higher than 80% at a concentration of 10 µM were also screened on eggs and adults from the ABZ resistant isolate.
as §1, §2

Values joined by “and” are separate entries in the source; they are usually repeats but may differ in a detail not shown here. Identical values can stand only once.

The values that follow come from paper PMC10993450, “New benzimidazole derivative compounds with in vitro fasciolicidal properties” (Parasites & Vectors, 2024).

As for `COc1ccc(C(=O)Nc2nc3cc(OC)ccc3[nH]2)cc1` [BZD60], in assay [1] (50 µM), the “% Ovicidal activity” value was 01.08 ± 0.79%.
`Cc1ccc2[nH]c(NCc3ccc4ccccc4c3)nc2c1` [BZD29]: the “% Ovicidal activity” value in assay [1] (50 µM) was determined as 04.65 ± 1.98%.
The same measure, in the same setting: in the case of `COc1cc(C(=O)Nc2nc3cc(C)ccc3[nH]2)cc(OC)c1OC` [BZD52] it was 02.50 ± 1.26%.
As to `Clc1ccc2[nH]c(NCc3ccco3)nc2c1` [BZD35], the “% Ovicidal activity” value in assay [1] (50 µM) was determined as 37.65 ± 13.55%.
Still for that read-out and setting: in the case of `COc1cc(OC)cc(C(=O)Nc2nc3cc(C)ccc3[nH]2)c1` [BZD51] it was 05.05 ± 2.51%.
As for `COc1ccc(C(=O)Nc2nc3cc(C)ccc3[nH]2)cc1` [BZD48], the “% Ovicidal activity” value in assay [1] (50 µM) was determined as 09.72 ± 2.50%.
The same measure, in the same setting: for `COc1ccc(-c2nc3cc(N)ccc3[nH]2)cc1` [BZD18] the value was 02.82 ± 1.42%.
Same read-out and setting: in the case of `Brc1ccc(-c2nc3ccccc3[nH]2)cc1` [BZD03] it was 01.93 ± 1.11%; in that of `COc1ccc(-c2nc3cc(Cl)ccc3[nH]2)cc1[N+](=O)[O-]` [BZD12], 00.55 ± 9.45%.
Still for that read-out and setting: for `O=C(Nc1nc2cc(Cl)c(Cl)cc2[nH]1)c1ccccc1` [BZD67] the value was 03.33 ± 2.51%.
As for `Cc1ccc2[nH]c(-c3ccc(Cl)cc3)nc2c1` [BZD05], the “% Ovicidal activity” value in assay [1] (10 µM) is listed as “around 50%”; in assay [1] (50 µM) it was 35.59 ± 9.00%.
In the case of `Cc1cc2nc(NC(=O)c3cccc(Cl)c3)[nH]c2cc1C` [BZD65], the “% Ovicidal activity” value in assay [1] (50 µM) is listed as 01.61 ± 0.82%.
The same measure, in the same setting: in the case of `Cc1ccc2[nH]c(NS(=O)(=O)c3ccc4ccccc4c3)nc2c1` [BZD26] it was 2.23 ± 0.99%.
`COc1ccc(-c2nc3cc([N+](=O)[O-])ccc3[nH]2)cc1[N+](=O)[O-]` [BZD17]: the “% Ovicidal activity” value in assay [1] (50 µM) came to 00.00 ± 0.00%.
For `COc1ccc(-c2nc3ccccc3[nH]2)cc1` [BZD01], the “% Ovicidal activity” value in assay [1] (50 µM) is 20.07 ± 9.32%.
For the molecule `COc1ccc2nc(-c3ccc(Br)cc3)[nH]c2c1` [BZD22], the “% Ovicidal activity” value in assay [1] (50 µM) was found to be 67.47 ± 5.64%.
On the same count and under the same terms, for `COc1ccc(CNc2nc3cc(Cl)ccc3[nH]2)cc1` [BZD33] the value was 05.52 ± 2.49%; for `Cc1ccc2[nH]c(NC(=O)Cc3ccc4ccccc4c3)nc2c1` [BZD53], 01.07 ± 0.62%.
With `COc1ccc2[nH]c(NCc3cccs3)nc2c1` [BZD40], the “% Ovicidal activity” value in assay [1] (50 µM) turned out to be 17.73 ± 5.12%.
On the same count and under the same terms, in the case of `COc1cc(CNc2nc3cc(Cl)ccc3[nH]2)cc(OC)c1OC` [BZD34] it was 00.39 ± 0.38%; in that of `Clc1cc2nc(NCc3ccccc3)[nH]c2cc1Cl` [BZD43], 55.36 ± 3.12%; in that of `Clc1ccc(-c2nc3ccccc3[nH]2)cc1` [BZD02], 09.55 ± 5.68%.
For `Cc1ccc(S(=O)(=O)Nc2nc3cc(C)ccc3[nH]2)cc1` [BZD25], in assay [1] (50 µM), the “% Ovicidal activity” value is recorded as 3.94 ± 1.37%.
In the case of `COc1ccc(-c2nc3cc([N+](=O)[O-])ccc3[nH]2)cc1` [BZD14], in assay [1] (50 µM), the “% Ovicidal activity” value came out at 15.55 ± 7.35%.
On to `Cc1ccc2[nH]c(NC(=O)c3cc([N+](=O)[O-])ccc3Cl)nc2c1` [BZD50], for which the “% Ovicidal activity” value in assay [1] (50 µM) was 07.62 ± 2.71%.
In the case of `COc1ccc(-c2nc3cc(NC(=O)c4ccccn4)ccc3[nH]2)cc1` [BZD19], the “% Ovicidal activity” value in assay [1] (50 µM) came to 13.61 ± 3.64%.
Turning to `Cc1ccc(C)c(-c2nc3cc([N+](=O)[O-])ccc3[nH]2)c1` [BZD16], the “% Ovicidal activity” value in assay [1] (50 µM) is 00.33 ± 0.33%.
Same read-out and setting: for `COc1ccc(CNc2nc3cc(C)ccc3[nH]2)c(OC)c1OC` [BZD28] the value was 01.02 ± 0.62%.
With `COc1cc(CNc2nc3cc(Cl)c(Cl)cc3[nH]2)cc(OC)c1OC` [BZD45], the “% Ovicidal activity” value in assay [1] (50 µM) is reported as 00.91 ± 0.61%.
As to `Cc1ccc(C)c(-c2nc3cc(Cl)ccc3[nH]2)c1` [BZD11], the “% Ovicidal activity” value in assay [1] (50 µM) was determined as 03.28 ± 1.45%.
On the same count and under the same terms, for `COc1ccc(C(=O)Nc2nc3cc(C)c(C)cc3[nH]2)cc1` [BZD66] the value was 00.26 ± 0.25%; for `COc1cc(CNc2nc3cc(C)c(C)cc3[nH]2)cc(OC)c1OC` [BZD42], 10.73 ± 3.26%.
Still for that read-out and setting: for `COc1ccc(-c2nc3cc(Cl)c(Cl)cc3[nH]2)cc1` [BZD24] the value was 16.09 ± 6.50%.
On to `COc1ccc(C(=O)Nc2nc3cc(Cl)ccc3[nH]2)cc1` [BZD57], for which the “% Ovicidal activity” value in assay [1] (50 µM) stood at 60.39 ± 10.70%.
Take `O=[N+]([O-])c1ccc(-c2nc3cc(Cl)ccc3[nH]2)cc1` [BZD10]: the “% Ovicidal activity” value in assay [1] (50 µM) is recorded as 23.55 ± 8.06%.
Same read-out and setting: in the case of `Cc1ccc(C)c(-c2nc3cc(C)ccc3[nH]2)c1` [BZD06] it was 02.26 ± 1.30% and 04.63 ± 2.27%; in that of `COc1ccc2[nH]c(-c3ccc(Cl)cc3)nc2c1` [BZD21], 06.88 ± 6.88%.
Regarding `COc1ccc(-c2nc3cc(C)c(C)cc3[nH]2)cc1` [BZD23], the “% Ovicidal activity” value in assay [1] (50 µM) was 59.08 ± 3.79%.
Regarding `COc1ccc(-c2nc3cc(OC)ccc3[nH]2)cc1` [BZD20], the “% Ovicidal activity” value in assay [1] (10 µM) was found to be 24.59 ± 05.71%.
For the molecule `COC(=O)Nc1nc2ccc([S+]([O-])c3ccccc3)cc2[nH]1` (centres unmarked) [OXF, oxfendazole, reference compound], in assay [1] (Fasciola hepatica, 5 µM, read-out: % Ovicidal activity susceptible isolate), the killing at 5 µM was over 98%. Besides, the “% Ovicidal activity resistant isolate” value in assay [2] (5 µM, mean ± SEM) was 3% and 03.41 ± 02.08%. Besides, the “Ovicidal activity on the resistant isolate” value in assay [2] (10 µM as printed) came to 3.5%.
For the molecule `COc1ccc(C(=O)Nc2nc3cc(Cl)c(Cl)cc3[nH]2)cc1` [BZD70], the “% Ovicidal activity” value in assay [1] (50 µM) is 02.75 ± 1.16%.
On the same count and under the same terms, in the case of `COc1ccc(-c2nc3cc(Cl)ccc3[nH]2)cc1N` [BZD13] it was 04.40 ± 1.38%; in that of `Cc1ccc2[nH]c(NC(=O)Cc3cccs3)nc2c1` [BZD54], 07.20 ± 3.47%; in that of `COc1ccc2[nH]c(NCc3ccccc3)nc2c1` [BZD36], 70.94 ± 2.32%.
On the same count and under the same terms, for `COc1ccc(-c2nc3cc(C)ccc3[nH]2)cc1[N+](=O)[O-]` [BZD07] the value was 07.13 ± 3.45%; for `COc1ccc(CNc2nc3cc(OC)ccc3[nH]2)cc1` [BZD37], 08.66 ± 1.86%; for `COc1ccc(CNc2nc3cc(C)c(C)cc3[nH]2)cc1` [BZD41], 05.76 ± 3.12%.
